One assay concerns Rhynchosporium secalis. In words: Antifungal activity test (PDA plate, hypha extension inhibition). The format is cell-based. The conditions noted are these: 100 ppm in PDA culture medium. The method, then:
(Antifungal Activity Test against Various Pathogenic Fungi) For each of the compounds I-1 to 27 of the present invention and the comparative compounds (a) to (d), (m-1) and (m-3), 20 mg was weighed and dissolved in 2 ml of dimethylsulfoxide, and a double dilution row in 10 steps was prepared by further using dimethylsulfoxide. A 0.6 ml portion of these solutions was each added to 60 ml of a PDA culture medium (potato-dextrose-agar culture medium) at about 60° C., they were well mixed in a 100 ml Erlenmeyer flask, the solution was poured into a schale and was solidified, the plate culture media containing the compounds according to the present invention with final concentrations of 100, 50.0, 25.0, 12.5, 6.3, 3.2, 1.6, 0.8, 0.4 and 0.2 mg/l were prepared. On the other hand, the specimen bacteria cultured on the plate culture media beforehand was punched by a 4 mm diameter cork borer, and was inoculated on the plate culture media containing the aforementioned chemicals. After the inoculation, the bacteria were cultured at the optimum growth temperature of each bacterium for 1 to 7 days (for this optimum growth temperature, LIST OF CULTURES 1996 Microorganisms 10th edition published by Fermentation Research Institute (Foundation) can be referred to.), and the growth of the bacteria was measured by the diameter of a colony. […]

In assay [1] the test system is wheat powdery mildew. The assay can be described thus: Permeable mobility fungicidal effect test in leaf section of wheat powdery mildew. Format: in vivo. The conditions noted are these: length of non-contracted area relative to compound (m-2); 200 mg/l, 0.5 μl applied to wheat leaf (Abukumawase). The procedure: (Permeable Mobility Fungicidal Effect Test in Leaf Section of Wheat Powdery Mildew) In the test example 4, permeable mobility fungicidal effect test was performed on the leaf section of wheat powdery mildew with regard to the compounds I-1 to 27 according to the present invention and the comparative compounds (a) to (d), and (m-1) to (m-3) with the method described later. <Test Method> The compound in the form of a wettable powder obtained by Formulation 2 or the like was diluted and suspended with water to a predetermined concentration (200 mg/l), and 0.5 μl of the suspension was applied to a 2 to 3 cm leaf portion from the root of the three leaves of the 4th to 4.5th leaf period wheat (variety: Abukumawase) cultured by using a square plastic pot (size: 6.4 cm×6.4 cm). After these wheat leaves were subject to still standing in a glass house (temperature: 20 to 24° C., relative humidity: 20 to 70 RH) for one day, the spores of wheat powdery mildew were inoculated over the leaves by sprinkling the same with a brush from an infected leaf, a disease was contracted in the same glass house. The length of a non-contracted area generated from the applied portion to the direction of the leaf top was measured, and a relative mobility to the compound (m-2) was calculated with the following calculation […] by using the comparative compound (m-2) as a standard compound. Relative mobility=(Length of non-contracted area in each chemical section (cm)/Length of non-contracted area of compound (m-2) (cm)) (Equation 4)

Another assay relates to Botrytis cinerea. The assay can be described thus: Antifungal activity test (PDA plate, hypha extension inhibition). Format: cell-based. The conditions noted are these: 1.6 ppm in PDA culture medium. The method, then: (Antifungal Activity Test against Various Pathogenic Fungi) For each of the compounds I-1 to 27 of the present invention and the comparative compounds (a) to (d), (m-1) and (m-3), 20 mg was weighed and dissolved in 2 ml of dimethylsulfoxide, and a double dilution row in 10 steps was prepared by further using dimethylsulfoxide. A 0.6 ml portion of these solutions was each added to 60 ml of a PDA culture medium (potato-dextrose-agar culture medium) at about 60° C., they were well mixed in a 100 ml Erlenmeyer flask, the solution was poured into a schale and was solidified, the plate culture media containing the compounds according to the present invention with final concentrations of 100, 50.0, 25.0, 12.5, 6.3, 3.2, 1.6, 0.8, 0.4 and 0.2 mg/l were prepared. On the other hand, the specimen bacteria cultured on the plate culture media beforehand was punched by a 4 mm diameter cork borer, and was inoculated on the plate culture media containing the aforementioned chemicals. After the inoculation, the bacteria were cultured at the optimum growth temperature of each bacterium for 1 to 7 days (for this optimum growth temperature, LIST OF CULTURES 1996 Microorganisms 10th edition published by Fermentation Research Institute (Foundation) can be referred to.), and the growth of the bacteria was measured by the diameter of a colony. […] R=100(dc−dt)/dc (Equation 3) [wherein each symbol is shown as follows: R=Hypha extension inhibition rate (%), dc=Diameter of colony on no-treated plate, dt=Diameter of colony on chemical-treated plate.] The results obtained above was evaluated in 5 steps in accordance with the following examination scale. <Growth Inhibition> 5: Hypha extension inhibition rate of 90% or more 4: Hypha extension inhibition rate of from 70% to less than 90% 3: […] 2: […] In addition, the abbreviations in Table 10 are as follows: B.c: Botrytis cinerea

Assay [2] has as its system wheat powdery mildew. The assay can be described thus: Test of control effect on wheat powdery mildew. The format is in vivo. Also noted: Control Value: scale not given here. The conditions noted are these: wettable powder 125 mg/l, 100 liters/10 a, wheat seedlings (Nourin 64), examined 9th to 14th day after inoculation. The procedure:
(Test of Control Effect on Wheat Powdery Mildew) Wettable powders were prepared from compounds of the present invention I-1 to I-27 and comparative compounds (a) to (d), (m-1) and (m-3). The obtained wettable powder was diluted and suspended with water to provide the predetermined concentration (125 mg/l), and was sprinkled onto seedlings of wheat (variety: “Nourin 64”) at the first to the second leaf period which were cultivated using square plastic pots (size: 6.4 cm×6.4 cm) in a rate of 100 liters/10 a (ares). After drying the sprinkled leaves with air, a suspension of wheat powdery mildew spores taken from infected leaves was inoculated by spraying onto the sprinkled leaves. They were supervised in a green house (temperature: 20 to 24° C., relative humidity: 20 to 70 RH). On the 9th to 14th day after the inoculation, the infection degree was examined according to the following scale and the control value of each compound was calculated by the following calculation equation 1. [table]

For the next assay, the system named is Pyricularia oryzae. Format: cell-based. The conditions noted are these: 12.5 ppm in PDA culture medium.

The structures appear in SMILES notation.

As for `CC(Cc1ccc(C(F)(F)F)c(F)c1F)CN(C)Cc1ccc(Cl)nc1` (stereo not shown) [Compound I-10], the “Growth Inhibition R.s (100)” value in the assay on Rhynchosporium secalis is 4 (Hypha extension inhibition rate of from 70% to less than 90%). The “Relative Mobility” value in the assay on wheat powdery mildew [1] is 3. Besides, in the assay with Botrytis cinerea, the “Growth Inhibition B.c (1.6)” value is on record as 5 (Hypha extension inhibition rate of 90% or more). Moreover, in the assay with wheat powdery mildew [2], the “Control Value” amounted to 100. Further, the “Growth Inhibition P.o (12.5)” value with Pyricularia oryzae was 4 (Hypha extension inhibition rate of from 70% to less than 90%).

For `CC(Cc1ccc2c(c1)OC(F)(F)O2)CN(C)Cc1ccc(Cl)nc1` (stereo not shown) [Compound I-24], in the assay on Rhynchosporium secalis, the “Growth Inhibition R.s (100)” value is given as 5 (Hypha extension inhibition rate of 90% or more). Also, in the assay on wheat powdery mildew [1], the “Relative Mobility” value amounted to 6. Also, the “Growth Inhibition B.c (1.6)” value in the assay on Botrytis cinerea was 4 (Hypha extension inhibition rate of from 70% to less than 90%). In addition, the “Control Value” with wheat powdery mildew [2] is recorded as 100. Moreover, in the assay with Pyricularia oryzae, the “Growth Inhibition P.o (12.5)” value is reported as 4 (Hypha extension inhibition rate of from 70% to less than 90%).

Source of the values: US20040152903A1, “6-chloro-3-pyridylmethylpropylamine derivatives, preparation process thereof and bactericides” (priority 2004, published 2004).
